Drawing on patent US20250368634A1, “PHENYL AMIDE COMPOUNDS AND METHODS OF USE” (SCHRÖDINGER, INC., priority 2022, published 2025), this text covers IC50 for 21 compounds.

The term IC50 denotes the point on the concentration scale where inhibition reaches its midpoint.

For the first test, the target named is SOS1-KRas (G12C) (Homo sapiens (Human), UniProt Q07889). Nature of the test: SOS1-KRas (G12C) FRET Assay. The format is binding.
Chain of SOS1-KRas (G12C) (Q07889 564-1049, stated change not applied): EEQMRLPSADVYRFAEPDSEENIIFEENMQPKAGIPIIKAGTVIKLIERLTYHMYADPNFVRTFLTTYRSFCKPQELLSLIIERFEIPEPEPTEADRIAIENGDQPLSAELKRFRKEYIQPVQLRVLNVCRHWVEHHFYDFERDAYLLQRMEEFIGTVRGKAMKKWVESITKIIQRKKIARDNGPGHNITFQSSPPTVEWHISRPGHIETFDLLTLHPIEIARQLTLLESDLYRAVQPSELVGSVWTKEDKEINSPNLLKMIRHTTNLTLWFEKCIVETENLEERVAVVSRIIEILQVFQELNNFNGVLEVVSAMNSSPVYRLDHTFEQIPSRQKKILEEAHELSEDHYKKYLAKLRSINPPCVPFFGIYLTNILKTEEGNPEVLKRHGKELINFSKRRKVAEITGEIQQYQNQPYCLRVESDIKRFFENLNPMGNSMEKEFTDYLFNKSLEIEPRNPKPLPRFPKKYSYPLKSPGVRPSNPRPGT
Conditions: not given
In turn, `C[C@@H](NC(=O)c1cc(N2CCOCC2)c(F)cc1NC12CC(N(C)C)(C1)C2)c1cccc(C(F)F)c1F` [Example 53, (R)—N-(1-(3-(difluoromethyl)-2-fluorophenyl)ethyl)-2-((3-(dimethylamino)bicyclo[1.1.1]pentan-1-yl)amino)-4-fluoro-5-morpholinobenzamide] gave an IC50 of 77.3 nM.

`C[C@@H](NC(=O)c1cc(O[C@@H]2CCOC2)c(F)cc1NC1CCN(C)CC1)c1cccc(C(F)F)c1F` [Example 9, N—((R)-1-(3-(difluoromethyl)-2-fluorophenyl)ethyl)-4-fluoro-2-((1-methylpiperidin-4-yl)amino)-5-(((R)-tetrahydrofuran-3-yl)oxy)benzamide] yielded an IC50 of 94 nM.

`C[C@@H](NC(=O)c1cc(N2CCOCC2)c(F)cc1N[C@H]1CN2CCC1CC2)c1cccc(C(F)F)c1F` [Example 15, N—((R)-1-(3-(difluoromethyl)-2-fluorophenyl)ethyl)-4-fluoro-5-morpholino-2-(((R)-quinuclidin-3-yl)amino)benzamide] gave an IC50 of 12.9 nM.

For `C[C@@H](NC(=O)c1cc(-c2ccncc2)c(F)cc1N[C@@H]1CN2CCC1CC2)c1cccc(C(F)F)c1F` (single isomer, unassigned) [Example 59], the IC50 was 25.7 nM.

The test is the same for the next values; noted with them: inhibition of SOS1:KRAS interaction; 0.5 nM His10-SOS1 (res. 564-1049), 2.5 nM GST-KRAS (res. 1-169, G12C); 2 hrs at RT.
In the case of `C[C@@H](NC(=O)c1cc(N2CCOCC2)c(F)cc1N[C@H]1CN2CCC1CC2)c1cccc(C(C)(F)F)c1F` [Example 43, N—((R)-1-(3-(1,1-difluoroethyl)-2-fluorophenyl)ethyl)-4-fluoro-5-morpholino-2-(((R)-quinuclidin-3-yl)amino)benzamide], the IC50 was 15.1 nM.

In the case of `Cc1c([C@@H](C)NC(=O)c2cc(C3CCOCC3)c(F)cc2NC2CCN(C)CC2)cccc1C(F)(F)F` [Example 21, (R)-4-fluoro-N-(1-(2-methyl-3-(trifluoromethyl)phenyl)ethyl)-2-((1-methylpiperidin-4-yl)amino)-5-(tetrahydro-2H-pyran-4-yl)benzamide], it took 225 nM to reach half-maximal inhibition (IC50).

As for `C[C@@H](NC(=O)c1cc(N2CCOCC2)c(F)cc1N[C@H]1[C@@H]2C[C@H]1CN(C)C2)c1cccc(C(F)F)c1F` [Example 18, N—((R)-1-(3-(difluoromethyl)-2-fluorophenyl)ethyl)-4-fluoro-2-(((1R,5S,6r)-3-methyl-3-azabicyclo[3.1.1]heptan-6-yl)amino)-5-morpholinobenzamide], the midpoint of inhibition, the IC50, lay at 17.8 nM.

For `C[C@@H](NC(=O)c1cc(N2CCOCC2)c(F)cc1NC1(C)CN(C)C1)c1cccc(C(F)F)c1F` [Example 54, (R)—N-(1-(3-(difluoromethyl)-2-fluorophenyl)ethyl)-2-((1,3-dimethylazetidin-3-yl)amino)-4-fluoro-5-morpholinobenzamide], the IC50 was determined as 74.1 nM.

With `C[C@@H](NC(=O)c1cc(N2CC3CCCC(C2)O3)c(F)cc1NC1CCN(C)CC1)c1cccc(C(F)F)c1F` [Example 41, 5-(9-oxa-3-azabicyclo[3.3.1]nonan-3-yl)-N-((R)-1-(3-(difluoromethyl)-2-fluorophenyl)ethyl)-4-fluoro-2-((1-methylpiperidin-4-yl)amino)benzamide], the IC50 was 33.3 nM.

In turn, `C[C@H](CN(C)C)Nc1cc(F)c(N2CCOCC2)cc1C(=O)N[C@H](C)c1cccc(C(F)F)c1F` (single isomer, unassigned) [Example 49] returned an IC50 of 70.7 nM.

Compound `C[C@@H](NC(=O)c1cc(-c2nnco2)c(F)cc1NC1CCN(C)CC1)c1cccc(C(F)F)c1F` [Example 72, (R)—N-(1-(3-(difluoromethyl)-2-fluorophenyl)ethyl)-4-fluoro-2-((1-methylpiperidin-4-yl)amino)-5-(1,3,4-oxadiazol-2-yl)benzamide] returned an IC50 of 11.4 nM.

In the case of `C[C@@H](NC(=O)c1cc(N2CCCC2)c(F)cc1N[C@@H]1CN2CCC1CC2)c1cccc(C(F)F)c1F` [Example 32, N—((R)-1-(3-(difluoromethyl)-2-fluorophenyl)ethyl)-4-fluoro-5-(pyrrolidin-1-yl)-2-(((S)-quinuclidin-3-yl)amino)benzamide], it took 133 nM to reach half-maximal inhibition (IC50).

Compound `C[C@@H](NC(=O)c1cc(N2CCOCC2)c(F)cc1NC(C)(C)CN(C)C)c1cccc(C(F)F)c1F` [Example 52, (R)—N-(1-(3-(difluoromethyl)-2-fluorophenyl)ethyl)-2-((1-(dimethylamino)-2-methylpropan-2-yl)amino)-4-fluoro-5-morpholinobenzamide] displayed an IC50 of 64.8 nM.

`C[C@@H](NC(=O)c1cc(-c2ccncc2F)c(F)cc1NC1CCN(C)CC1)c1cccc(C(F)F)c1F` [Example 63, (R)-N-(1-(3-(difluoromethyl)-2-fluorophenyl)ethyl)-4-fluoro-5-(3-fluoropyridin-4-yl)-2-((1-methylpiperidin-4-yl)amino)benzamide] gave an IC50 of 14.9 nM.

`C[C@@H](NC(=O)c1cc(N2CC(F)(F)C[C@@H]2C)c(F)cc1NC1CCN(C)CC1)c1cccc(C(F)F)c1F` [Example 37, 5-((S)-4,4-difluoro-2-methylpyrrolidin-1-yl)-N-((R)-1-(3-(difluoromethyl)-2-fluorophenyl)ethyl)-4-fluoro-2-((1-methylpiperidin-4-yl)amino)benzamide] showed an IC50 of 138 nM.

For `C[C@@H](NC(=O)c1cc(N2CCOCC2)c(F)cc1N[C@@H]1CN2CCC1CC2)c1cccc(C(C)(F)F)c1F` [Example 42, N—((R)-1-(3-(1,1-difluoroethyl)-2-fluorophenyl)ethyl)-4-fluoro-5-morpholino-2-(((S)-quinuclidin-3-yl)amino)benzamide], the IC50 turned out to be 49.5 nM.

For `Cc1c([C@@H](C)NC(=O)c2cc(-c3cnoc3)c(F)cc2NC2CCN(C)CC2)cccc1C(F)(F)F` [Example 61, (R)-4-fluoro-5-(isoxazol-4-yl)-N-(1-(2-methyl-3-(trifluoromethyl)phenyl)ethyl)-2-((1-methylpiperidin-4-yl)amino)benzamide], the IC50 is 130 nM.

`CC(=O)N1CC2(C1)CN(c1cc(C(=O)N[C@H](C)c3cccc(C(F)(F)F)c3C)c(NC3CCN(C)CC3)cc1F)C2` [Example 20, (R)-5-(6-acetyl-2,6-diazaspiro[3.3]heptan-2-yl)-4-fluoro-N-(1-(2-methyl-3-(trifluoromethyl)phenyl)ethyl)-2-((1-methylpiperidin-4-yl)amino)benzamide] yielded an IC50 of 26.4 nM.

As for `Cc1cc(-c2cc(C(=O)N[C@H](C)c3cccc(C(F)F)c3F)c(NC3CCN(C)CC3)cc2F)ccn1` [Example 64, (R)-N-(1-(3-(difluoromethyl)-2-fluorophenyl)ethyl)-4-fluoro-2-((1-methylpiperidin-4-yl)amino)-5-(2-methylpyridin-4-yl)benzamide], inhibition was half-maximal at 8.3 nM (IC50).

In the case of `C[C@@H](NC(=O)c1cc(N2CCOCC2)c(C#N)cc1N[C@@H]1CN2CCC1CC2)c1cccc(C(F)F)c1F` [Example 25, 4-cyano-N—((R)-1-(3-(difluoromethyl)-2-fluorophenyl)ethyl)-5-morpholino-2-(((S)-quinuclidin-3-yl)amino)benzamide], the IC50 came to 7.4 nM.

For `C[C@@H](NC(=O)c1cc(N2CCOCC2)c(F)cc1NCCN)c1cccc(C(F)F)c1F` [Example 47, (R)-2-((2-aminoethyl)amino)-N-(1-(3-(difluoromethyl)-2-fluorophenyl)ethyl)-4-fluoro-5-morpholinobenzamide], the IC50 was 33.7 nM.
